Test results published in patent publication EP4745137A1 (Gluetacs Therapeutics (Shanghai) Co., Ltd., priority 2023, dated 2025).
Like-named read-outs stand apart in the source and are kept apart here.

Assays:
IKZF2 = biological target: T1, IKZF2 (Homo sapiens, UniProt Q96SW2+Q9UKS7); assay: Western-blot assay of substrate protein degradation in hPBMCs, IKZF2; assay type: cell-based; conditions: 24 hours of compound treatment, compounds tested at 50 nM and 500 nM (concentration of the table not stated)
T1 construct: endogenous in cells; host or cells: hPBMCs (Milecell Biotechnologies)
T1 sequence (Q9UKS7 whole entry): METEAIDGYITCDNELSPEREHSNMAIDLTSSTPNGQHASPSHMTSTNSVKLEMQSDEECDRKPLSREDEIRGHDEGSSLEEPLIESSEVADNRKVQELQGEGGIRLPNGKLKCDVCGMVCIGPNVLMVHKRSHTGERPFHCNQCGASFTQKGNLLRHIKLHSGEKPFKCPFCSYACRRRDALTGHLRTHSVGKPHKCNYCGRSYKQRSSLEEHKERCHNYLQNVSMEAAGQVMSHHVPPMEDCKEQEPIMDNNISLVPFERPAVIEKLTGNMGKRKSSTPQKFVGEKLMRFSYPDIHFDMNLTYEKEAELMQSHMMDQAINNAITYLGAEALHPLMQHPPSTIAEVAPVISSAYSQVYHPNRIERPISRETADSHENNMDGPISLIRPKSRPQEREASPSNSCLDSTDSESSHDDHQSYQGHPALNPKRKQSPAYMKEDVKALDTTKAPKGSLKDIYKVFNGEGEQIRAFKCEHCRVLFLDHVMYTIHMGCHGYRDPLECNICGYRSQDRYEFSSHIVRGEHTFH
T1 sequence (Q96SW2 whole entry): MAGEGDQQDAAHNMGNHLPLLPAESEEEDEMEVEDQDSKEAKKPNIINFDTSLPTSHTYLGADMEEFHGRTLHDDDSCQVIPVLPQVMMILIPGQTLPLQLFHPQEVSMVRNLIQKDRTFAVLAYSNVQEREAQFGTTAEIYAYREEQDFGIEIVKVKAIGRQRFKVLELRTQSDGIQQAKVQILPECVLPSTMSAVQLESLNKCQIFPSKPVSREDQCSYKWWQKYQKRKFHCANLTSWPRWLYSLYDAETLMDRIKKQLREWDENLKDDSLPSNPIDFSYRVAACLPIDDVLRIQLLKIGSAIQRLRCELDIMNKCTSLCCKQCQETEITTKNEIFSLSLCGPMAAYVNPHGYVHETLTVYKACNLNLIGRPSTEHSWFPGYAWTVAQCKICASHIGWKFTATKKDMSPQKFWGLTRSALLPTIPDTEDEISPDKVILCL
T1 sequence (Q16531 whole entry partner): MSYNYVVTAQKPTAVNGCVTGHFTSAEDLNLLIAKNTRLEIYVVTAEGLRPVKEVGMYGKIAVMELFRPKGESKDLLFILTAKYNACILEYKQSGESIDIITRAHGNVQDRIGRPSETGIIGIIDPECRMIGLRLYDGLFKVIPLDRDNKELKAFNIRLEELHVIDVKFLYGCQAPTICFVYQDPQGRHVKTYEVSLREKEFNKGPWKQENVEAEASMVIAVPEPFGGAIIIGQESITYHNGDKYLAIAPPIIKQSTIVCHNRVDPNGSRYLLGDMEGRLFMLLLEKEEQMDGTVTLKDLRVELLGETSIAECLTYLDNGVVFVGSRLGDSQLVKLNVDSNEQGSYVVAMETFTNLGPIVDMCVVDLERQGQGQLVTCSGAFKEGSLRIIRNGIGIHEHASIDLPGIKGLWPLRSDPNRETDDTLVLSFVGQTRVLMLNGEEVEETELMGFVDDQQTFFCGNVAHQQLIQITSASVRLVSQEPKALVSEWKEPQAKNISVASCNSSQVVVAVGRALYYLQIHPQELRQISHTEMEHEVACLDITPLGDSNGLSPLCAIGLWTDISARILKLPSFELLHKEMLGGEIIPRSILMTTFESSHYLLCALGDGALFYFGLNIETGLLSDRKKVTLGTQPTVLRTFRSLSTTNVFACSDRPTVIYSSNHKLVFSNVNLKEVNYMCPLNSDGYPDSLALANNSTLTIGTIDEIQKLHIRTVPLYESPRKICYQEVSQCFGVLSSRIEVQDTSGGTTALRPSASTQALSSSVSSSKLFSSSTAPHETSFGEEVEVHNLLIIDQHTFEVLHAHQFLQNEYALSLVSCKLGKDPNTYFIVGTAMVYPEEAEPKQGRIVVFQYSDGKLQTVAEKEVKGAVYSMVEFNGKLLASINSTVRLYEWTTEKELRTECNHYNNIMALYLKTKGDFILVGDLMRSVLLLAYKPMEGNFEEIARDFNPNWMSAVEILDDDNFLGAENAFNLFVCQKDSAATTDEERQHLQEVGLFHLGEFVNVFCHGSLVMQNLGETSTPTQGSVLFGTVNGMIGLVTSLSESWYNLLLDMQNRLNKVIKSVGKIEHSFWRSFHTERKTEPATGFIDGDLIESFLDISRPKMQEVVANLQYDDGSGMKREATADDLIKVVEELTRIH

IKZF1 = biological target: T2, IKZF1 (Homo sapiens, UniProt Q13422+Q96SW2); assay: Western-blot assay of substrate protein degradation in hPBMCs, IKZF1; assay type: cell-based; conditions: 24 hours of compound treatment, compounds tested at 50 nM and 500 nM (concentration of the table not stated)
T2 construct: endogenous in cells; host or cells: hPBMCs (Milecell Biotechnologies)
T2 sequence (Q13422 whole entry): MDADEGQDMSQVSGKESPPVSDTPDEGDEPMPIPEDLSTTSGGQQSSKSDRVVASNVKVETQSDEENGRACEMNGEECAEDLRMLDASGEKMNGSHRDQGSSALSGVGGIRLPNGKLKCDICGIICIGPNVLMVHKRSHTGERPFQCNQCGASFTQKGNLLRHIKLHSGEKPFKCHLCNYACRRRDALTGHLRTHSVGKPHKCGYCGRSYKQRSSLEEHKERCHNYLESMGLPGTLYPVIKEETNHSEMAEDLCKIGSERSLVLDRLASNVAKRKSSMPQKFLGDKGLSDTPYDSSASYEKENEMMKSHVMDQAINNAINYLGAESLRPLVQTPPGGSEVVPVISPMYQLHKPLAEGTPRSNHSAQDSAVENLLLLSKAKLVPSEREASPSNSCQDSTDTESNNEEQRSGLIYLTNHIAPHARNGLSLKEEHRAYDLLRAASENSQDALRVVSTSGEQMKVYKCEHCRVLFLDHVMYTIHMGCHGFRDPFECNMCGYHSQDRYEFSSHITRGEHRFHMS
T2 sequence (Q96SW2 whole entry): as the sequence (Q96SW2 whole entry) above
T2 sequence (Q16531 whole entry partner): as the sequence (Q16531 whole entry partner) above

GSPT1 = biological target: T3, GSPT1 (Homo sapiens, UniProt P15170+Q96SW2); assay: Western-blot assay of substrate protein degradation in hPBMCs, GSPT1; assay type: cell-based; conditions: 24 hours of compound treatment, compounds tested at 50 nM and 500 nM (concentration of the table not stated)
T3 construct: endogenous in cells; host or cells: hPBMCs (Milecell Biotechnologies)
T3 sequence (P15170 whole entry): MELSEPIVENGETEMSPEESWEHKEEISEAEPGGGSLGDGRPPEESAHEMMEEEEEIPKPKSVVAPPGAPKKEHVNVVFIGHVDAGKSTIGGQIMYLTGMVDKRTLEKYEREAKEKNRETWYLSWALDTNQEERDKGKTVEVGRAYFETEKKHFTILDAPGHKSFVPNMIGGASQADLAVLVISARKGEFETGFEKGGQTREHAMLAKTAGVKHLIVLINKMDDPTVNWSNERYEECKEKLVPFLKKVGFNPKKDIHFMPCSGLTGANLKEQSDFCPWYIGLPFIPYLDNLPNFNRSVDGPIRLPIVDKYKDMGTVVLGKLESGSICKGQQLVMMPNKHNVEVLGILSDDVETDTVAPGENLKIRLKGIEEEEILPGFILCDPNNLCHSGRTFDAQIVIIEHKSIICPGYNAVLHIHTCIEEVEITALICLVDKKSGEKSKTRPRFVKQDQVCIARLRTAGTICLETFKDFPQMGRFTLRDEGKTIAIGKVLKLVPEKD
T3 sequence (Q96SW2 whole entry): as the sequence (Q96SW2 whole entry) above
T3 sequence (Q16531 whole entry partner): as the sequence (Q16531 whole entry partner) above

WEE1 = biological target: T4, WEE1 (Homo sapiens, UniProt P30291+Q96SW2); assay: Western-blot assay of substrate protein degradation in hPBMCs, WEE1; assay type: cell-based; conditions: 24 hours of compound treatment, compounds tested at 50 nM and 500 nM (concentration of the table not stated)
T4 construct: endogenous in cells; host or cells: hPBMCs (Milecell Biotechnologies)
T4 sequence (P30291 whole entry): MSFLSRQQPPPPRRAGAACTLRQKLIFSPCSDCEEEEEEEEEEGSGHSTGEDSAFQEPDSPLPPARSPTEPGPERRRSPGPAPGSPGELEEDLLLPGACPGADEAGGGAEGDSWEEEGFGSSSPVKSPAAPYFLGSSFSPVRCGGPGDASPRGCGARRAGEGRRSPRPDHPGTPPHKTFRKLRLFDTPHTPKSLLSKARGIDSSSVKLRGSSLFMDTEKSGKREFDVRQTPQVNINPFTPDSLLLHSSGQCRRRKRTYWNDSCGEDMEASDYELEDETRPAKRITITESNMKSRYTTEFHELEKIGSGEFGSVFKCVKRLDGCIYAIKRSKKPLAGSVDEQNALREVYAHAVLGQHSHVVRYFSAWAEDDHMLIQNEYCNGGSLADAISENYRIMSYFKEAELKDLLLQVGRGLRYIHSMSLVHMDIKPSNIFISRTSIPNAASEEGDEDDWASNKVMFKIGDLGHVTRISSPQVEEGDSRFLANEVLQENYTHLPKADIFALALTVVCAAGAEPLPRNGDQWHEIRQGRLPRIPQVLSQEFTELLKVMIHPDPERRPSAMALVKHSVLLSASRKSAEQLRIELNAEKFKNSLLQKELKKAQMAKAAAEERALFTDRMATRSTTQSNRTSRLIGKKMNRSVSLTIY
T4 sequence (Q96SW2 whole entry): as the sequence (Q96SW2 whole entry) above
T4 sequence (Q16531 whole entry partner): as the sequence (Q16531 whole entry partner) above

CK1α = biological target: T5, CK1α (Homo sapiens, UniProt P48729+Q96SW2); assay: Western-blot assay of substrate protein degradation in hPBMCs, CK1α; assay type: cell-based; conditions: 24 hours of compound treatment, compounds tested at 50 nM and 500 nM (concentration of the table not stated)
T5 construct: endogenous in cells; host or cells: hPBMCs (Milecell Biotechnologies)
T5 sequence (P48729 whole entry): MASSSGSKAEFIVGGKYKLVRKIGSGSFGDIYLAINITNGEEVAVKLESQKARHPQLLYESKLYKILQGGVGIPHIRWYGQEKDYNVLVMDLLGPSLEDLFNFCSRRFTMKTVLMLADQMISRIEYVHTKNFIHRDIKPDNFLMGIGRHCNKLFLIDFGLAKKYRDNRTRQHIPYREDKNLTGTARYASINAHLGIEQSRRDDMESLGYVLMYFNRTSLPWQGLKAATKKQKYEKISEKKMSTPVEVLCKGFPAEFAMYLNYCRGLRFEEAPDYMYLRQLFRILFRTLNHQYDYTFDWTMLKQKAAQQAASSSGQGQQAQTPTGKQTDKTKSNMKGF
T5 sequence (Q96SW2 whole entry): as the sequence (Q96SW2 whole entry) above
T5 sequence (Q16531 whole entry partner): as the sequence (Q16531 whole entry partner) above

[1] = biological target: T6, human Cereblon WT GST-tagged protein (Homo sapiens, UniProt Q96SW2); assay: CRBN-binding affinity by HTRF (CEREBLON BINDING kit)
T6 construct: purchased CISBIO 64BDCRBNPEH
T6 sequence (Q96SW2 whole entry): as the sequence (Q96SW2 whole entry) above
Description: The CEREBLON BINDING kits (specification: 10,000 tests; product number: Catalog # 64BDCRBNPEH; CISBIO company) was used to determine the CRBN binding ability of the compounds to be tested through a HTRF method (homogeneous time-resolved fluorescence). The specific methods are as follows: • 1. […] Specifically, diluent #9 (1X) solution was used as the diluent, and multiple concentration gradients were set. […] Then, 2.5 µL of human Cereblon WT GST-tagged protein solution was added to each well. Finally, 5 µL of the thoroughly mixed Thalidomide-Re reagent and GST Eu antibody working solution were added to each of the aforementioned wells. […] The blank control wells were sequentially added with 2.5 µL of diluent #9 (1X) solution, 2.5 µL of binding buffer, and 5 µL of thoroughly mixed Thalidomide-Re reagent and GST Eu antibody working solution. • 4.

IKZF3 = biological target: T7, IKZF3 (Homo sapiens, UniProt Q96SW2+Q9UKT9); assay: Western-blot assay of substrate protein degradation in hPBMCs, IKZF3; assay type: cell-based; conditions: 24 hours of compound treatment, compounds tested at 50 nM and 500 nM (concentration of the table not stated)
T7 construct: endogenous in cells; host or cells: hPBMCs (Milecell Biotechnologies)

[2] = HTRF inhibitory activity, CEREBLON BINDING kit; read-out: HTRF IC50

SMILES | IKZF2 substrate protein remaining % (IKZF2) | IKZF 1 substrate protein remaining % (IKZF1) | GSPT1 substrate protein remaining % (GSPT1) | Weel substrate protein remaining % (WEE1) | CK1a substrate protein remaining % (CK1α) | IC50 [1, 2] [nM] | IKZF3 substrate protein remaining % (IKZF3) | IC50 ([1]; read-out: HTRF IC50; HTRF inhibitory activity, CEREBLON BINDING kit) [nM]
O=C1CCC(N2Cc3cc(CN4CCc5sccc5C4)ccc3C2=O)C(=O)N1 (stereo not shown) [GT-04200, 3-(5-((6,7-dihydrothieno[3,2-c]pyridin-5(4H)-yl)methyl)-1-oxoisoindolin-2-yl)piperidine-2,6-dione] | A (0% ≤ substrate protein remaining % ≤ 80%) | B (80%< substrate protein remaining %≤ 100%) | B (80%< substrate protein remaining %≤ 100%) | A (0% ≤ substrate protein remaining % ≤ 80%) | B (80%< substrate protein remaining %≤ 100%) | 500 to 1000 | A (0% ≤ substrate protein remaining % ≤ 80%) | 
O=C1CCC(N2Cc3cc(CN4CCN(c5ncccc5Cl)CC4)ccc3C2=O)C(=O)N1 (stereo not shown) [GT-04428, 3-(5-((4-(3-chloropyridin-2-yl)piperazin-1-yl)methyl)-1-oxoisoindolin-2-yl)piperidine-2,6-dione] | B (80%< substrate protein remaining %≤ 100%) | B (80%< substrate protein remaining %≤ 100%) | A (0% ≤ substrate protein remaining % ≤ 80%) | B (80%< substrate protein remaining %≤ 100%) | B (80%< substrate protein remaining %≤ 100%) | < 500 | B (80%< substrate protein remaining %≤ 100%) | 
O=C1CCC(N2Cc3cc(CN4CCN(c5ccc(C(F)(F)F)cn5)CC4)ccc3C2=O)C(=O)N1 (stereo not shown) [GT-04433, 3-(1-oxo-5-((4-(5-(trifluoromethyl)pyridin-2-yl)piperazin-1-yl)methyl)isoindolin-2-yl)piperidine-2,6-dione] | B (80%< substrate protein remaining %≤ 100%) | B (80%< substrate protein remaining %≤ 100%) | A (0% ≤ substrate protein remaining % ≤ 80%) | B (80%< substrate protein remaining %≤ 100%) | B (80%< substrate protein remaining %≤ 100%) | 1000 to 1500 | B (80%< substrate protein remaining %≤ 100%) | 
O=C1CCC(N2Cc3cc(CN4CCN(c5ncccc5C(F)(F)F)CC4)ccc3C2=O)C(=O)N1 (stereo not shown) [GT-04434, 3-(1-oxo-5-((4-(3-(trifluoromethyl)pyridin-2-yl)piperazin-1-yl)methyl)isoindolin-2-yl)piperidine-2,6-dione] | B (80%< substrate protein remaining %≤ 100%) | B (80%< substrate protein remaining %≤ 100%) | A (0% ≤ substrate protein remaining % ≤ 80%) | B (80%< substrate protein remaining %≤ 100%) | B (80%< substrate protein remaining %≤ 100%) | 500 to 1000 | B (80%< substrate protein remaining %≤ 100%) | 
Cc1ccc(N2CCN(Cc3ccc4c(c3)CN(C3CCC(=O)NC3=O)C4=O)CC2)c(C)c1 (stereo not shown) [GT-04439, 3-(5-((4-(2,4-dimethylphenyl)piperazin-1-yl)methyl)-1-oxoisoindolin-2-yl)piperidine-2,6-dione] | A (0% ≤ substrate protein remaining % ≤ 80%) | A (0% ≤ substrate protein remaining % ≤ 80%) | A (0% ≤ substrate protein remaining % ≤ 80%) | A (0% ≤ substrate protein remaining % ≤ 80%) | A (0% ≤ substrate protein remaining % ≤ 80%) | 1000 to 1500 | A (0% ≤ substrate protein remaining % ≤ 80%) | 
O=C1CCC(N2Cc3cc(CN4CCN(c5ccccn5)CC4)ccc3C2=O)C(=O)N1 (stereo not shown) [GT-04449, 3-(1-oxo-5-((4-(pyridin-2-yl)piperazin-1-yl)methyl)isoindolin-2-yl)piperidine-2,6-dione] | A (0% ≤ substrate protein remaining % ≤ 80%) | A (0% ≤ substrate protein remaining % ≤ 80%) | A (0% ≤ substrate protein remaining % ≤ 80%) | A (0% ≤ substrate protein remaining % ≤ 80%) | A (0% ≤ substrate protein remaining % ≤ 80%) | 500 to 1000 | A (0% ≤ substrate protein remaining % ≤ 80%) | 
O=C1CCC(N2Cc3cc(CN4CCN(c5ccncc5)CC4)ccc3C2=O)C(=O)N1 (stereo not shown) [GT-04450, 3-(1-oxo-5-((4-(pyridin-4-yl)piperazin-1-yl)methyl)isoindolin-2-yl)piperidine-2,6-dione] | B (80%< substrate protein remaining %≤ 100%) | B (80%< substrate protein remaining %≤ 100%) | A (0% ≤ substrate protein remaining % ≤ 80%) | B (80%< substrate protein remaining %≤ 100%) | B (80%< substrate protein remaining %≤ 100%) | 500 to 1000 | B (80%< substrate protein remaining %≤ 100%) | 
O=C1CCC(N2Cc3cc(CN4CCN(c5ccc(C(F)(F)F)cc5)CC4)ccc3C2=O)C(=O)N1 (stereo not shown) [GT-04451, 3-(1-oxo-5-((4-(4-(trifluoromethyl)phenyl)piperazin-1-yl)methyl)isoindolin-2-yl)piperidine-2,6-dione] | B (80%< substrate protein remaining %≤ 100%) | B (80%< substrate protein remaining %≤ 100%) | A (0% ≤ substrate protein remaining % ≤ 80%) | B (80%< substrate protein remaining %≤ 100%) | B (80%< substrate protein remaining %≤ 100%) | 1000 to 1500 | B (80%< substrate protein remaining %≤ 100%) | 
O=C1CCC(N2C(=O)c3ccc(CN4CCN(c5ncnc6scc(-c7ccccc7)c56)CC4)cc3C2=O)C(=O)N1 (stereo not shown) [GT-06345, 2-(2,6-dioxopiperidin-3-yl)-5-((4-(5-phenylthieno[2,3-d]pyrimidin-4-yl)piperazin-1-yl)methyl)isoindoline-1,3-dione] |  |  |  |  |  | 1000 to 1500 |  | 
Cc1nc(N2CCN(Cc3ccc4c(c3)C(=O)N(C3CCC(=O)NC3=O)C4=O)CC2)c2c(-c3ccccc3)csc2n1 (stereo not shown) [GT-06346, 2-(2,6-dioxopiperidin-3-yl)-5-((4-(2-methyl-5-phenylthieno[2,3-d]pyrimidin-4-yl)piperazin-1-yl)methyl)isoindoline-1,3-dione] |  |  |  |  |  | 1000 to 1500 |  | 
O=C1CCC(N2C(=O)c3ccc(CN4CCC(c5ncnc6scc(-c7ccccc7)c56)CC4)cc3C2=O)C(=O)N1 (stereo not shown) [GT-06595, 2-(2,6-dioxopiperidin-3-yl)-5-((4-(5-phenylthieno[2,3-d]pyrimidin-4-yl)piperidin-1-yl)methyl)isoindoline-1,3-dione] |  |  |  |  |  | 1000 to 1500 |  | 
O=C1CCC(N2C(=O)c3ccc(CN4CCN(c5ccc(Cl)nn5)CC4)cc3C2=O)C(=O)N1 (stereo not shown) [GT-06605, 5-((4-(6-chloropyridazin-3-yl)piperazin-1-yl)methyl)-2-(2,6-dioxopiperidin-3-yl)isoindoline-1,3-dione] |  |  |  |  |  | 1500 to 1900 |  | 
O=C1CCC(N2C(=O)c3ccc(CN4CCN(c5nc6c(c(N7CCOCC7)n5)SCC6)CC4)cc3C2=O)C(=O)N1 (stereo not shown) [GT-06713, 2-(2,6-dioxopiperidin-3-yl)-5-((4-(4-morpholino-6,7-dihydrothieno[3,2-d]pyrimidin-2-yl)piperazin-1-yl)methyl)isoindoline-1,3-dione] |  |  |  |  |  |  |  | 1500 to 1900
